Structures can show the parent of a compound that is named as a salt.

The values below come from patent US7521466B2, “Dipeptide phenyl ethers” (Bexel Pharmaceuticals, Inc., priority 2003, dated 2009).

In one data set the test system is IL-1β. In words: LPS induced IL-1β production in THP-1 monocyte cells. It counts as cell-based, Human. The following applies: THP-1 cells, LPS 1 μg/ml, 24 hours, ELISA. The method, then:
(§1) Human THP-1 monocyte cells were cultured and incubated with compounds A and B at different concentrations. Cells were then challenged with lipopolysaccharides (LPS) at a concentration of (1 μg/ml) for 24 hours. Cell supernatants were then analyzed for the presence of TNFα, IL-1β and IL-6 cytokines by antibody directed enzyme-linked immunoassay (FIGS. 8A, 8B, and 8C).

Data set [1] concerns Human THP-1 monocyte cells. In words: Cell viability of THP-1 monocyte cells. It counts as cell-based. Conditions: THP-1 cells, highest concentration of the compound.
Data set [2] relates to 3T3-L1 differentiated adipocytes. In words: Basal glucose uptake in 3T3-L1 adipocytes. It counts as cell-based. The following applies: 72 hr treatment, absence of insulin, control 0.1% DMSO. On the procedure:
Basal glucose uptake was carried out in 3T3-L1 differentiated adipocytes. After 72 hr of treatment they were challenged with either rosiglitazone or Compound A, then glucose uptake was carried out in absence of insulin. The control was 0.1% DMSO. Cytochalasin B was added in another set of wells to show the effect is receptor mediated.

The next data set concerns 3T3-L1 fibroblasts. In words: Adipogenesis (lipid accumulation, oil red O) in 3T3-L1 fibroblasts. The format is cell-based. Conditions: 0.1 and 10 uM, 7 days, oil red O staining. On the procedure:
Rosiglitazone and Compound A at 0.1 and 10 uM concentrations, were treated for 7 days and at the end lipid droplets were stained with oil red O and visualized under microscope.

Data set [3] deals with ob/ob mice. In words: Hyperglycemia and OGTT in diabetic obese ob/ob mice. The following applies: 50 mg/kg orally, 15-21 days. The format is in vivo. The method, then:
The ob/ob mice is lacking leptin signaling and show hyperglycemia with significant weight gain. The compounds at a dose 50 mg/kg body weight were given orally in these animals for a period of 15-21 days.

For a further data set, the system named is TNFα. In words: LPS induced TNFα production in THP-1 monocyte cells. The format is cell-based, Human. The following applies: THP-1 cells, LPS 1 μg/ml, 24 hours, ELISA. On the procedure:
as §1
(In general: ELISA stands for enzyme-linked immunosorbent assay.)

In the next data set the test system is IL-6. Description: LPS induced IL-6 production in THP-1 monocyte cells. The format is cell-based, Human. The following applies: THP-1 cells, LPS 1 μg/ml, 24 hours, ELISA. The method, then:
as §1

In data set [4] the test system is db/db mice. Description: Testing hyperglycemia in diabetic db/db mice. It counts as in vivo. Conditions: for improvement of hyperglycemic conditions (blood glucose): db/db mice, 5, 10 and 50 mg/kg body weight orally, 15-21 days; for drop in blood glucose in treated animals compared to control groups: db/db mice, time course experiment following the oral dose (FIGS. 1A, 2A). On the procedure: The hypoglycemic effect of compounds A and B have been examined in spontaneous animal models of diabetes, leptin receptor knockout (db/db mice). The db/db mice have defective leptin receptor and show hyperglycemia with significant weight gain. The compound at a dose of 5, 10 (FIGS. 1C, 2C) and 50 mg/kg body weight (FIGS. lB, 2B) was given orally in these animals for a period of 15-21 days.

The subject of data set [5] is ob/ob mice. In words: Lipid profile (TG, VLDL, cholesterol, HDL) in ob/ob mice. It counts as in vivo. The following applies: 15-day treatment study. An excerpt:
The leptin knock-out ob/ob mice is also considered a good model for insulin resistance and hyperlipidemia. Treatment of these animals with the compounds A and B lowered serum triglycerides (FIG. 4A) and VLDL (FIG. 4B) concentration by >50%.

Data set [6] deals with ob/ob mice. In words: Body weight gain, food and water intake in obese diabetic ob/ob mice. The following applies: 50 mg/kg orally, 15-21 days. The format is in vivo. On the procedure: The ob/ob mice are lacking circulating leptin r and show hyperglycemia with significant weight gain. Both the compounds A and B at a dose of 50 mg/kg body weight were given orally in these animals for a period of 15-21 days.

Data set [7] relates to db/db mice. In words: Body weight gain, food and water intake in db/db mice. The following applies: 50 mg/kg orally, 15-21 days. It counts as in vivo. On the procedure: The db/db mice have defective leptin receptor and show hyperglycemia with significant weight gain. The compound B at a dose of 50 mg/kg body weight was given orally in these animals for a period of 15-21 days.

As for `COC(=O)C(Cc1ccc(Oc2ccc(CC3SC(=O)NC3=O)cc2)cc1)NC(=O)C(N)Cc1cnc[nH]1` (centres unmarked) [Compound A, 5-[4-(4-(2-(2-amino-3-imidazol-4-ylpropanamido)-2-methoxycarbonylethyl)phenoxy)benzyl]thiazolidin-2,4-dione dihydrochloride], the “inhibition of IL-1β production” value in the data set on IL-1β is given as “inhibit the production of three major pro-inflammatory cytokines in a dose dependent manner”. In addition, in data set [1], the cell viability entry is “No significant change in cell viability”. Also, the “basal glucose uptake compared to control cells” value in data set [2] is listed as “significant increase in basal glucose uptake”. For the same molecule, the “adipogenesis (lipid accumulation) compared to rosiglitazone” value with 3T3-L1 fibroblasts is listed as “did not show any adipogenesis”. In addition, in the data set on ob/ob mice [3], the “OGTT (oral glucose tolerance)” value is “significant improvement of OGTT” and the “improvement of hyperglycemic conditions” value is listed as “significant improvements of hyperglycemic conditions”. In addition, the “inhibition of TNFα production” value with TNFα was “inhibit the production of three major pro-inflammatory cytokines in a dose dependent manner”. For the same molecule, the “inhibition of IL-6 production” value with IL-6 is listed as “inhibit the production of three major pro-inflammatory cytokines in a dose dependent manner”. Further, in the data set with db/db mice [4], the “improvement of hyperglycemic conditions (blood glucose)” value is “significant improvements of hyperglycemic conditions” and the “drop in blood glucose in treated animals compared to control groups” value was found to be 30%. Moreover, in the data set with ob/ob mice [5], the “decrease in serum cholesterol concentrations” value is given as 19%. In the data set with ob/ob mice [6], the “body weight gain compared to controls” value is given as “significant reductions in body weight gain”, the “food intake compared to control groups” value was “improved significantly” and the “water intake compared to control groups” value was “improved significantly”.
For the molecule `COC(=O)C(Cc1ccc(Oc2ccc(C=C3SC(=O)NC3=O)cc2)cc1)NC(=O)C(N)Cc1c[nH]cn1.Cl.Cl` (centres unmarked) [Compound B, 5-[4-(4-(2-(2-Amino-3-imidazol-4-ylpropanamido)-2-methoxycarbonylethyl)phenoxy)benzylidene]thiazolidin-2,4-dione dihydrochloride], the “inhibition of IL-1β production” value with IL-1β is on record as “inhibit the production of three major pro-inflammatory cytokines in a dose dependent manner”. Also, the cell viability entry in data set [1] is “No significant change in cell viability”. In the data set on db/db mice [7], the “body weight gain compared to controls” value was “significant reductions in body weight gain”, the “food intake compared to control groups” value is listed as “improved significantly” and the “water intake compared to control groups” value was “improved significantly”. Also, in the data set with ob/ob mice [3], the “OGTT (oral glucose tolerance)” value is “significant improvement of OGTT” and the “improvement of hyperglycemic conditions” value was “significant improvements of hyperglycemic conditions”. Also, in the data set with TNFα, the “inhibition of TNFα production” value is reported as “inhibit the production of three major pro-inflammatory cytokines in a dose dependent manner”. Further, the “inhibition of IL-6 production” value with IL-6 is “inhibit the production of three major pro-inflammatory cytokines in a dose dependent manner”. Moreover, in the data set on db/db mice [4], the “improvement of hyperglycemic conditions (blood glucose)” value was “significant improvements of hyperglycemic conditions” and the “drop in blood glucose in treated animals compared to control groups” value turned out to be 24%. For the same molecule, the “decrease in serum cholesterol concentrations” value in the data set with ob/ob mice [5] was determined as 19%. Besides, in the data set with ob/ob mice [6], the “body weight gain compared to controls” value is “significant reductions in body weight gain”, the “food intake compared to control groups” value is recorded as “improved significantly” and the “water intake compared to control groups” value was “improved significantly”.
